Reference: ChEMBL document CHEMBL1131009, “Structure-activity relationship studies of novel carbocyclic influenza neuraminidase inhibitors” (J Med Chem, 1998)
pIC50: −log10 of the molar value.

Target: Neuraminidase (Influenza A virus (A/Puerto Rico/8/1934(H1N1)), UniProt P03468)
Experiment: Inhibitory activity against influenza A neuraminidase from influenza A/PR/8/34 (H1N1).
Set-up: species or system Influenza A virus (strain: A/PR/8/34)

| SMILES | pIC50 |
| --- | --- |
| CC[C@@H](C)O[C@@H]1C=C(C(=O)O)C[C@H](N)[C@H]1NC(C)=O | 8.00 |
| CCO[C@@H]1C=C(C(=O)O)C[C@H](N)[C@H]1NC(C)=O | 5.70 |
| CC(=O)N[C@@H]1[C@@H](N)CC(C(=O)O)=C[C@H]1OC(Cc1ccccc1)Cc1ccccc1 | < 6.00 |
| CCC(CC)O[C@@H]1C(F)=C(C(=O)O)C[C@H](N)[C@H]1NC(C)=O | 8.52 |
| CCCCCCC[C@H](CC)O[C@@H]1C=C(C(=O)O)C[C@H](N)[C@H]1NC(C)=O | 9.00 |
| CC(=O)N[C@@H]1[C@@H](N)CC(C(=O)O)=C[C@H]1OCc1ccccc1 | 6.21 |
| CCCO[C@@H]1C=C(C(=O)O)C[C@H](N=C(N)N)[C@H]1NC(C)=O | 8.70 |
| CCC(CC)O[C@@H]1C=C(C(=O)O)[C@@H](C)[C@H](N)[C@H]1NC(C)=O | 5.82 |
| CCCCCCCCCCO[C@@H]1C=C(C(=O)O)C[C@H](N)[C@H]1NC(C)=O | 6.22 |
| CO[C@@H]1C=C(C(=O)O)C[C@H](N)[C@H]1NC(C)=O | 5.43 |
| CC(=O)N[C@H]1[C@H](O)C=C(C(=O)O)C[C@@H]1N=C(N)N | 7.00 |
| CC[C@@H](CCC1CCCCC1)O[C@@H]1C=C(C(=O)O)C[C@H](N)[C@H]1NC(C)=O | 9.00 |
| CC[C@H](C)O[C@@H]1C=C(C(=O)O)C[C@H](N)[C@H]1NC(C)=O | 8.05 |
| CCCCCCCCCO[C@@H]1C=C(C(=O)O)C[C@H](N)[C@H]1NC(C)=O | 6.68 |
| CC(=O)N[C@@H]1[C@@H](N)CC(C(=O)O)=C[C@H]1OC(CCCc1ccccc1)CCCc1ccccc1 | < 6.00 |
| CC[C@@H](CC1CCCCC1)O[C@@H]1C=C(C(=O)O)C[C@H](N)[C@H]1NC(C)=O | 7.80 |
| CCC(CC)O[C@@H]1C(C)=C(C(=O)O)C[C@H](N)[C@H]1NC(C)=O | 5.64 |
| CCCO[C@@H]1C=C(C(=O)O)C[C@H](N)[C@H]1NC(C)=O | 6.74 |
| CC[C@H](CCc1ccccc1)O[C@@H]1C=C(C(=O)O)C[C@H](N)[C@H]1NC(C)=O | 7.92 |
| CC(=O)N[C@@H]1[C@@H](N)CC(C(=O)O)=C[C@H]1OCC(C)C | 6.70 |
| CCCCO[C@@H]1C=C(C(=O)O)C[C@H](N)[C@H]1NC(C)=O | 6.52 |
| CC(=O)N[C@@H]1[C@@H](N)CC(C(=O)O)=C[C@H]1OCCCc1ccc(-c2ccccc2)cc1 | 7.05 |
| CC(=O)N[C@H]1[C@H](O)C=C(C(=O)O)C[C@@H]1N | 5.20 |
| CC[C@@H](CCc1ccccc1)O[C@@H]1C=C(C(=O)O)C[C@H](N)[C@H]1NC(C)=O | 9.52 |
| CCCCCCCCO[C@@H]1C=C(C(=O)O)C[C@H](N)[C@H]1NC(C)=O | 6.74 |
| CCCCO[C@@H]1C=C(C(=O)O)C[C@H](N=C(N)N)[C@H]1NC(C)=O | 8.52 |
| CCCCCCCO[C@@H]1C=C(C(=O)O)C[C@H](N)[C@H]1NC(C)=O | 6.57 |
| CCCCCCO[C@@H]1C=C(C(=O)O)C[C@H](N)[C@H]1NC(C)=O | 6.82 |
| CCCCCO[C@@H]1C=C(C(=O)O)C[C@H](N)[C@H]1NC(C)=O | 6.70 |
| CC[C@@H](C)O[C@@H]1C=C(C(=O)O)C[C@H](NC(=N)N)[C@H]1NC(C)=O (stereo in doubt; 61) | 9.30 |
